Test results reported in patent publication US7045510B2, “Methods for prevention and treatment of mastitis” (priority 2004, dated 2006).

Key:
[1] = system: milk somatic cell concentration (SCC); assay: Milk somatic cell concentration (SCC) after intramammary infusion at drying-off; format: in vivo, dairy cows
Method: (§1) Experimental Design: At dry-off all quarters of even numbered cows (n=39) were infused with antibiotics (Cefa-Dri (Fort Dodge Animal Health, Fort Dodge, Iowa 50501) containing 300 mg cephapirin […] in peanut oil) approved for use by FDA. All quarters of odd numbered cows (n=40) were infused with dextran (total dose 100 mg DEAE-dextran (Sigma Chemical Co. St. Louis, Mo.)) in 1 ml of sterile filtered distilled water and suspended in 9 ml of peanut oil (Sigma).
Mammary quarters of 4 dairy cows at drying-off were infused with either 100 mg of DEAE-dextran, peanut oil, or were uninfused. Secretions were collected at 0, 24, 48, 72, 96, and 120 hours post infusion for determination of milk somatic cell concentration.

[2] = system: intramammary infections (mastitis); assay: Intramammary infection status before dry-off and after calving, all 4 quarters infused at dry-off; format: in vivo, cows; conditions: for new infections (quarters infected during the dry period) / old infections (quarters remaining infected after calving): group total after calving; for infected quarters at dry-off: baseline before infusion
Method: as §1

[3] = Milk yield in the subsequent lactation after infusion at dry-off; format: in vivo, cows; conditions: for Mean yearly milk yield: mean per cow of the group
Method: as §1

With diethylaminoethyl-dextran the “milk somatic cell count” value ([1]; 0 hour, quarters of 4 dairy cows infused with 100 mg at drying-off) was 129000 mL⁻¹, the “milk somatic cell count” value ([1]; 24 hours post infusion, 100 mg per quarter at drying-off) was 19,591 ×10^3/ml and the “milk somatic cell count” value ([1]; 72 hours post infusion, 100 mg per quarter at drying-off) was 8,000 ×10^3/ml. The “milk somatic cell concentration (SCC) increased to” value ([1]; total dose 100 mg in 1 ml water suspended in 9 ml peanut oil (FIG. 1)) was “one million”, the “clinical symptoms (swelling, elevated body temperature, redness of udder, pain)” value ([1]; total dose 100 mg intramammary) was “no clinical symptoms” and the “new infections (quarters infected during the dry period)” value [2] was 26 new infections quarters. The “old infections (quarters remaining infected after calving)” value [2] was 17 old infections quarters, the “new infections (quarters infected during the dry period)” value ([2]; listed as dextran) was 26 quarters and the “old infections (quarters remaining infected after calving)” value ([2]; listed as dextran) was 17 quarters. The “infected quarters at dry-off” value ([2]; group total) was 38 quarters infected, the “infected quarters at dry-off” value ([2]; group total, listed as dextran) was 38 quarters and the “total infections after calving” value ([2]; group total, old plus new) was 43 infections. For the same substance, the “net gain of intramammary infections” value ([2]; total after calving compared to infected quarters at dry-off) was 5 infections, the “milk yield per cow more than cows that received antibiotics” value [3] was “approximately 700 pounds” and the “Mean yearly milk yield” value [3] was “Mean 26029 pounds”. For the same substance, the “Mean yearly milk yield” value ([3]; listed as dextran) was 26,029 pounds.
